Key:
crimson [1] = experiment: Yield of crimson grapes, each treatment carried out two times consecutively; type: in vivo, Vitis Vinifera sp.; conditions: two treatments 40 days apart, LPE 50 ppm, potassium silicate 100 ppm, 200 GPA, Ethrel 400 ppm, 100 GPA, FIG. 1
Protocol: (§1) The grape was selected as a test plant. Crimson and red globe (scientific name: Vitis Vinifera sp.) were used as the grape.
(§2) The control group 2 is the case where they are treated with Ethrel, which is widely sold and used as a plant growth regulator, in an amount of 400 ppm, 100 GPA.
(§3) The control group 3 is such that it is treated with the solution of LPE 10% in an amount of 50 ppm, 200 GPA.
(§4) The solutions were injected in a spray manner, except the control groups 1 and 5. The each treatment was carried out for an area of 5 acres. All treatments were carried out with a typical orchard air blast sprayer.
(§5) All harvests after the each treatment were carried out by the workers belonging to the farm according to the ordinary harvesting method, so that the grapes were harvested in accordance with a commercial standard. The number and grade of the box harvested from the respective treatment row were recorded for each harvest day, with regard to the each treatment.
For the crimson which is cultivated in California, the above 6 treatments were successively carried out two times.

crimson [2] = experiment: Yield of crimson grapes, single application; type: in vivo, Vitis Vinifera sp.; conditions: one treatment, LPE 50 ppm, potassium silicate 100 ppm, 200 GPA, FIG. 2
Protocol: as §1
The each treatment was carried out for an area of 5 acres. All treatments were carried out with a typical orchard air blast sprayer.
as §5
For the crimson which is cultivated in California, the above 6 treatments were carried out. The treatment was carried out only one time.

red globe = experiment: Yield of red globe grapes, each treatment carried out two times consecutively; type: in vivo, Vitis Vinifera sp.; conditions: two treatments 40 days apart, LPE 50 ppm, potassium silicate 100 ppm, 200 GPA, FIG. 3
Protocol: as §1, §2, §3, §4, §5
For the red globe which is cultivated in California, the above 6 treatments were successively carried out two times.

protoplast of corn root = experiment: Reactive oxygen species (ROS) by DCF-DA flow cytometry; type: cell-based, Zea mays L; conditions: incubated 5 minutes
Protocol: The corns (Zea mays L) were used according to the following procedures: seeds of Golden cross Bantam were sufficiently washed in the flowing water and immersed in the distilled water for 24 hours. Then, the seeds were arranged in a line on the cultivation dish where the paper wetted with the distilled water was put on the cultivation dish and the ventral side of the seeds was forced to touch with the dish bottom. The seeds were covered with the wetted paper by two folds. […] The individuals having the root length of 1.5-2 cm were selected and used in this experiment. The protoplast of the corn root etiolated was modified according to the following method (Sheen J, Metabolic repression of transcription in higher plants, Plant Cell, 1990 October: 2(10):1027-38). In other words, the protoplast was separated from the two-day etiolated young corn plant. […] The compound was converted into […] by the esterase in the cell, which was in turn oxidized by the reactive oxygen species such as H2O2 and thus changed into 2′, 7′-dichlorofluorescine (DCF) having the highest fluorescence. […]

[3] = tested on: Muscat Bailey A (late-season cv.) grapes; experiment: Coloring development of grape fruit; type: in vivo; conditions: two weeks after treatment; LPE 50 ppm, sodium silicate 100 ppm, 200 GPA; FIGS. 7a to 7c
From the text: Grapes used in the experiment were Muscat Bailey A (late-season cv.). […] [table]

[4] = tested on: Muscat Bailey A (late-season cv.) grapes; experiment: Color of grape leaves; type: in vivo; conditions: two weeks after treatment; LPE 50 ppm, sodium silicate 100 ppm, 200 GPA; FIGS. 8a to 8c
Protocol: Grapes used in the experiment were Muscat Bailey A (late-season cv.). […] [table] Meanwhile, an observation after two weeks was also carried out for colors of grape leaves.

mung beans = experiment: Adventitious root growth of mung beans; type: in vivo; conditions: two weeks after treatment; 50 ppm each; FIGS. 9 and 10
[5] = tested on: Muscat Bailey A (late-season cv.) grapes; experiment: Preservation stability of the grape fruit; type: in vivo; set-up: unit not given here; conditions: preserved at room temperature for 14 days
From the text: Grapes used in the experiment were Muscat Bailey A (late-season cv.).
The grapes treated in the Example 3 were harvested, and preserved at a room temperature for 14 days. Then, calculation has been done for a ratio of complete grape fruits that were not decayed or no bruise.

lysophosphatidylethanolamine [LPE]
yield of the grapes (ranking of groups) (crimson [1]): smaller than those of the control groups 1 and 5 which were not treated
yield (crimson [2]): 96.3
increase of yield as compared to the control groups 1 and 5, which were not treated (red globe): about 22 boxes
increase amount of ROS (protoplast of corn root; LPE 20 ppm (combination: + sodium silicate 40 ppm)): 200-300%
increase amount of ROS (protoplast of corn root; LPE 50 ppm (combination: + sodium silicate 100 ppm)): 200-300%
colors of grapes [3]: excellent in the order of the experimental group 4, the control group 11, and the control group 10
colors of grape leaves [4]: many leaves become discolored to yellow
length of the adventitious roots (mung beans): the length thereof is short
number of the adventitious roots (mung beans): large number
ratio of complete grape fruits that were not decayed or no bruise ([5]; Average of 6 repeats): 6.9
ratio of complete grape fruits that were not decayed or no bruise ([5]; Repeat 1): 14.2
ratio of complete grape fruits that were not decayed or no bruise ([5]; Repeat 2): 15.6
ratio of complete grape fruits that were not decayed or no bruise ([5]; Repeat 3): 4.0
ratio of complete grape fruits that were not decayed or no bruise ([5]; Repeat 4): 0
ratio of complete grape fruits that were not decayed or no bruise ([5]; Repeat 5): 3.7
ratio of complete grape fruits that were not decayed or no bruise ([5]; Repeat 6): 3.7

From patent US20100255990A1, “METHOD, COMPOSITION AND KIT FOR PROMOTIONG PLANT GROWTH AND IMPROVING PLANT PRESERVATION” (Doosan Corporation, priority 2005, published 2010)
